Assay results: patent US20240398805A1, “QUINAZOLINE DERIVED COMPOUNDS AS EGFR INHIBITORS AND THEIR USES THEREOF” (ACCUTAR BIOTECHNOLOGY INC., priority 2021, published 2024)

How the values were obtained:
Assay type in all cases: cell-based
[1] = test system: HCC827-SVD cells (human EGFR exon 20 insertion mutant D770_N771 insSVD); assay: Cell growth inhibition (CellTiter-Glo, 3 days) in HCC827-SVD; settings: 72 h, 3 days after administration
Experimental: (§1) 1. Preparation of HCC827-SVD, HCC827-ASV and HCC827-YVMA Cell Lines
HCC827-SVD cell line were generated by first transducing HCC827 cells (ATCC) with lentiviral particles expressing codon-optimized human EGFR exon 20 insertion mutant D770_N771 insSVD, and then selecting under 5 μg/ml purimycin treatment for a week.
The resulting cells were further transduced with lentiviral particles carrying EGFR sgRNA and CAS9 to knockout the endogenous alleles of EGFR, and then selected under 500 μg/ml hygromycin B treatment for two weeks. Single clone was subsequently generated by limiting dilution approach. Endogenous EGFR knockout was confirmed by Sanger sequencing of cell genomic DNA and expression of exogenous mutant EGFR was verified by Western blot analysis.
(§2) 2. Cell Growth Inhibition for HCC827, HCC827-SVD, HCC827-ASV, HCC827-YVMA and A431.
(§3) HCC827(ATCC), HCC827-SVD, HCC827-ASV, HCC827-YVMA were seeded in 96-well plates at 5000 cells/well in 90 μl of RPMI growth medium containing 10% FBS and 1% Penicillin Streptomycin. A431 (ATCC) cells were seed in 96-well plates at 5000 cells/well in 90 μl of DMEM growth medium containing 10% FBS and 1% Penicillin Streptomycin. Cells were incubated at 3700 overnight. The following day, the test compound was administered to the cells by using 1 Ox compound stock solution prepared in growth medium at various concentrations. After administration of the compound, cells were then incubated at 3700 for 3 days. Before CeIlTiter-Glo assay, the plates were equilibrated at room temperature for approximately 10 minutes. 100 ul of CelTiter-Glo® Reagent (Promega) was added to each well. The plates were then incubated at room temperature for 10 minutes and luminescence was recorded by EnSpire plate reader (PerkinElmer).

[2] = test system: HCC827-YVMA cells (human ERBB2 exon20 insertion mutant A775_G776ins YVMA); assay: Cell growth inhibition (CellTiter-Glo, 3 days) in HCC827-YVMA; settings: 72 h, 3 days after administration
From the text: as §1
(§4) HCC827-ASV and HCC827-YVMA cell lines were generated in the similar approach as HCC827-SVD except that HCC827 cells (ATCC) were first transduced with lentiviral particles expressing codon-optimized human EGFR exon 20 insertion mutant A769_D770insASV and human ERBB2 exon20 insertion mutant A775_G776ins YVMA, respectively.
as §2, §3

[3] = test system: HCC827 cells; assay: Cell growth inhibition (CellTiter-Glo, 3 days) in HCC827; settings: Homo sapiens, 72 h, 3 days after administration
Experimental: as §2, §3

[4] = test system: HCC827-ASV cells (human EGFR exon 20 insertion mutant A769_D770insASV); assay: Cell growth inhibition (CellTiter-Glo, 3 days) in HCC827-ASV; settings: 72 h, 3 days after administration
From the text: as §1, §4, §2, §3

[5] = test system: A431 cells; assay: Cell growth inhibition (CellTiter-Glo, 3 days) in A431; settings: Homo sapiens, A-431, 72 h, 3 days after administration
Experimental: as §2, §3

| GI50 [1] [nM] | GI50 [2] [nM] | GI50 [3] [nM] | GI50 [4] [nM] | GI50 [5] [nM] | SMILES |
| --- | --- | --- | --- | --- | --- |
| 60 to 100 | 60 to 100 | 300 to 600 | 30 to 60 | 300 to 600 | C=CC(=O)N1CCC(Nc2cc3c(Nc4ccc(Oc5ccn(-c6cnc(OC)nc6)n5)cc4F)ncnc3cc2OC)CC1 [Compound 1, 1-(4-((4-((2-fluoro-4-((1-(2-methoxypyrimidin-5-yl)-1H-pyrazol-3-yl)oxy)phenyl)amino)-7-methoxyquinazolin-6-yl)amino)piperidin-1-yl)prop-2-en-1-one] |
| < 30 | < 30 | < 30 | < 30 | 60 to 100 | C=CC(=O)N1CCC(Nc2cc3c(Nc4ccc(Oc5ccn(-c6cnc(C)c(F)c6)n5)cc4F)ncnc3cc2OC)CC1 [Compound 2, 1-(4-((4-((2-fluoro-4-((1-(5-fluoro-6-methylpyridin-3-yl)-1H-pyrazol-3-yl)oxy)phenyl)amino)-7-methoxyquinazolin-6-yl)amino)piperidin-1-yl)prop-2-en-1-one] |
| 60 to 100 | 30 to 60 | 300 to 600 | 30 to 60 | 100 to 300 | C=CC(=O)N1CCC(Nc2cc3c(Nc4ccc(Oc5ccn(-c6ccc(C)nc6)n5)cc4F)ncnc3cc2OC)CC1 [Compound 3, 1-(4-((4-((2-fluoro-4-((1-(6-methylpyridin-3-yl)-1H-pyrazol-3-yl)oxy)phenyl)amino)-7-methoxyquinazolin-6-yl)amino)piperidin-1-yl)prop-2-en-1-one] |
| 100 to 300 | 100 to 300 | 300 to 600 | 100 to 300 | 300 to 600 | C=CC(=O)N1CCC(Nc2cc3c(Nc4ccc(Oc5nc(-c6nnc(C(C)C)o6)cs5)cc4F)ncnc3cc2OC)CC1 [Compound 4, 1-(4-((4-((2-fluoro-4-((4-(5-isopropyl-1,3,4-oxadiazol-2-yl)thiazol-2-yl)oxy)phenyl)amino)-7-methoxyquinazolin-6-yl)amino)piperidin-1-yl)prop-2-en-1-one] |
| 100 to 300 | 100 to 300 | 100 to 300 | 100 to 300 | 300 to 600 | C=CC(=O)N1CCC(Nc2cc3c(Nc4ccc(Oc5ncc(-c6ccc(C)nc6)s5)cc4F)ncnc3cc2OC)CC1 [Compound 5, 1-(4-((4-((2-fluoro-4-((5-(6-methylpyridin-3-yl)thiazol-2-yl)oxy)phenyl)amino)-7-methoxyquinazolin-6-yl)amino)piperidin-1-yl)prop-2-en-1-one] |
| 300 to 600 | 300 to 600 | ≥ 1000 | 300 to 600 | 300 to 600 | C=CC(=O)N1CCC(Nc2cc3c(Nc4ccc(Oc5nc(-c6ccc(C)nc6)cs5)cc4F)ncnc3cc2OC)CC1 [Compound 6, 1-(4-((4-((2-fluoro-4-((4-(6-methylpyridin-3-yl)thiazol-2-yl)oxy)phenyl)amino)-7-methoxyquinazolin-6-yl)amino)piperidin-1-yl)prop-2-en-1-one] |
| < 30 | < 30 | < 30 | < 30 | < 30 | C=CC(=O)N1CCC(Nc2cc3c(Nc4ccc(Oc5ccn6ncnc6c5)c(Cl)c4)ncnc3cc2OC)CC1 [Compound 7, 1-(4-((4-((4-([1,2,4]triazolo[1,5-a]pyridin-7-yloxy)-3-chlorophenyl)amino)-7-methoxyquinazolin-6-yl)amino)piperidin-1-yl)prop-2-en-1-one] |
| 100 to 300 |  | 300 to 600 |  | 300 to 600 | C=CC(=O)N1CC[C@H](Oc2cc3c(Nc4ccc(Oc5ccn(-c6cnc(OC)nc6)n5)cc4F)ncnc3cc2OC)C1 [Compound 81, (S)-1-(3-((4-((2-fluoro-4-((1-(2-methoxypyrimidin-5-yl)-1H-pyrazol-3-yl)oxy)phenyl)amino)-7-methoxyquinazolin-6-yl)oxy)pyrrolidin-1-yl) prop-2-en-1-one] |
